Experimental data reported in patent US20040185430A1, “Process for evaluating the cosmetic or dermatological activity of a product and use of plant material” (priority 2002, published 2004).

Key:
[1] = tested on: Carrot; assay: Barrier effect, insensible water loss (IWL), Dermalab, carrot model; details: 4 mg/cm2 topical, T 2 hours vs T0, corrected for control region
Procedure: (§1) Measurements were carried out at approximately 22° C. and a relative humidity ranging from 53% to 67%. Fruits and vegetables: 2 samples per product, measured at intervals of 24 hours. Application to regions of 4 cm^2. A control region on each sample. Application of the formulations at the rate of 4 mg/cm^2 (search for the direction of the action and not for the performance of the product). The plant and human models and the products tested were the same as in Example 1. The IWL (insensible water loss) measurements were carried out according to the same protocol as above. IWL: Measurement with a Dermalab (vertical probe in contact with the measurement region, under minimum pressure). For the plants, a glass sheet was placed under the measurement region. 2 series of consecutive measurements of 25 values were conducted. The values are the mean of the measurements at Ti divided by those at T0 corrected for the variations in the control regions.

[2] = tested on: Man; assay: Moisturizing effect, CM820 corneometer, human model (inner forearm); assay type: in vivo; details: 4 mg/cm2 topical, T 2 hours vs T0, corrected for control region
Procedure: 2) To measure the moisturizing and the barrier effects, the human models (2 male volunteers and 2 female volunteers) took part in the tests and measurements under environmental conditions which were also controlled. Measurements were carried out at approximately 22° C. and a relative humidity ranging from 53% to 67%. Human beings: 4 models per product. Application to an inner region of the arm. Three regions of measurements, including a control, on the inner part of each forearm were conducted. The models were kept calm under climate-controlled measuring conditions for 15 minutes before each series of measurements. Application of each formulation over an area of 16 cm^2. Application of the formulations at the rate of 4 mg/cm^2 (search for the direction of the action and not for the performance of the product). Moisturizing—Measurement with a CM820 corneometer of the mean value of 5 determinations. Measurements at: T0: reference value before application of the formulations. T 2 hours for the active principles (single measurement after observation of appearance of cuts on the leaves brought about by the measuring pressure of the corneometer). T 1 hour and T 4 hours for the commercial formulations. The values are the mean of the measurements at Ti divided by those at TO corrected for the variations in the control regions.

[3] = tested on: Apples, Golden Delicious; assay: Moisturizing effect, CM820 corneometer, apple model; details: 4 mg/cm2 topical, T 2 hours vs T0, corrected for control region
Procedure: (§2) Measurements were carried out at approximately 22° C. and a relative humidity ranging from 53% to 67%. Fruits and vegetables: 2 samples per product, measured at intervals of 24 hours. Application to regions of 4 cm^2. A control region on each sample. Application of the formulations at the rate of 4 mg/cm^2 (search for the direction of the action and not for the performance of the product). Moisturizing—Measurement with a CM820 corneometer of the mean value of 5 determinations. Measurements at: T0: reference value before application of the formulations. T 2 hours for the active principles (single measurement after observation of appearance of cuts on the leaves brought about by the measuring pressure of the corneometer). T 1 hour and T 4 hours for the commercial formulations. The values are the mean of the measurements at Ti divided by those at TO corrected for the variations in the control regions.

[4] = tested on: Syngonium; assay: Barrier effect, insensible water loss (IWL), Dermalab, Syngonium leaves; details: Syngonium leaf; 4 mg/cm2 topical; T 2 hours vs T0, corrected for control
Procedure: as §1, with “Plants:” for “Fruits and vegetables:”, “Application” for “Application to regions”, “the formulations over the whole of the vernicose (upper) surface. One leaf per formulation+one” for “4 cm^2. A”, “leaf. […]” for “region on each sample.”

[5] = tested on: Ficus; assay: Moisturizing effect, CM820 corneometer, Ficus leaves; details: Ficus leaf; 4 mg/cm2 topical; T 2 hours vs T0, corrected for control
Procedure: as §2, with “Plants:” for “Fruits and vegetables:”, “Application” for “Application to regions”, “the formulations over the whole of the vernicose (upper) surface. One leaf per formulation+one” for “4 cm^2. A”, “leaf. […]” for “region on each sample.”

[6] = tested on: Ficus; assay: Barrier effect, insensible water loss (IWL), Dermalab, Ficus leaves; details: Ficus leaf; 4 mg/cm2 topical; T 2 hours vs T0, corrected for control
Procedure: as §1, with “Plants:” for “Fruits and vegetables:”, “Application” for “Application to regions”, “the formulations over the whole of the vernicose (upper) surface. One leaf per formulation+one” for “4 cm^2. A”, “leaf. […]” for “region on each sample.”

[7] = tested on: Man; assay: Barrier effect, insensible water loss (IWL), Dermalab, human model (inner forearm); assay type: in vivo; details: 4 mg/cm2 topical, T 2 hours vs T0, corrected for control region
Procedure: 2) To measure the moisturizing and the barrier effects, the human models (2 male volunteers and 2 female volunteers) took part in the tests and measurements under environmental conditions which were also controlled. Measurements were carried out at approximately 22° C. and a relative humidity ranging from 53% to 67%. Human beings: 4 models per product. Application to an inner region of the arm. Three regions of measurements, including a control, on the inner part of each forearm were conducted. The models were kept calm under climate-controlled measuring conditions for 15 minutes before each series of measurements. Application of each formulation over an area of 16 cm^2. Application of the formulations at the rate of 4 mg/cm^2 (search for the direction of the action and not for the performance of the product). The plant and human models and the products tested were the same as in Example 1. The IWL (insensible water loss) measurements were carried out according to the same protocol as above. IWL: Measurement with a Dermalab (vertical probe in contact with the measurement region, under minimum pressure). For the plants, a glass sheet was placed under the measurement region. 2 series of consecutive measurements of 25 values were conducted. The values are the mean of the measurements at Ti divided by those at T0 corrected for the variations in the control regions.

[8] = tested on: Spatyphillum; assay: Moisturizing effect, CM820 corneometer, Spatyphillum leaves; details: Spatyphillum leaf; 4 mg/cm2 topical; T 2 hours vs T0, corrected for control
Procedure: as §2, with “Plants:” for “Fruits and vegetables:”, “Application” for “Application to regions”, “the formulations over the whole of the vernicose (upper) surface. One leaf per formulation+one” for “4 cm^2. A”, “leaf. […]” for “region on each sample.”

[9] = tested on: Carrot; assay: Moisturizing effect, CM820 corneometer, carrot model; details: 4 mg/cm2 topical, T 2 hours vs T0, corrected for control region
Procedure: as §2

[10] = tested on: Potato, BF15; assay: Barrier effect, insensible water loss (IWL), Dermalab, potato model; details: 4 mg/cm2 topical, T 2 hours vs T0, corrected for control region
Procedure: as §1

[11] = tested on: Spatyphillum; assay: Barrier effect, insensible water loss (IWL), Dermalab, Spatyphillum leaves; details: Spatyphillum leaf; 4 mg/cm2 topical; T 2 hours vs T0, corrected for control
Procedure: as §1, with “Plants:” for “Fruits and vegetables:”, “Application” for “Application to regions”, “the formulations over the whole of the vernicose (upper) surface. One leaf per formulation+one” for “4 cm^2. A”, “leaf. […]” for “region on each sample.”

[12] = tested on: Potato, BF15; assay: Moisturizing effect, CM820 corneometer, potato model; details: 4 mg/cm2 topical, T 2 hours vs T0, corrected for control region
Procedure: as §2

[13] = tested on: Syngonium; assay: Moisturizing effect, CM820 corneometer, Syngonium leaves; details: Syngonium leaf; 4 mg/cm2 topical; T 2 hours vs T0, corrected for control
Procedure: as §2, with “Plants:” for “Fruits and vegetables:”, “Application” for “Application to regions”, “the formulations over the whole of the vernicose (upper) surface. One leaf per formulation+one” for “4 cm^2. A”, “leaf. […]” for “region on each sample.”

[14] = tested on: Apples, Golden Delicious; assay: Barrier effect, insensible water loss (IWL), Dermalab, apple model; details: 4 mg/cm2 topical, T 2 hours vs T0, corrected for control region
Procedure: as §1

Row | Structure (SMILES) | Variation T 2 hours/T0 IWL [1] | Variation T 2 hours/T0 Corneo [2] | Variation T 2 hours/T0 Corneo [3] | Variation T 2 hours/T0 IWL [4] | Variation T 2 hours/T0 Corneo [5] | Variation T 2 hours/T0 IWL [6] | Variation T 2 hours/T0 IWL [7] | Variation T 2 hours/T0 Corneo [8] | Variation T 2 hours/T0 Corneo [9] | Variation T 2 hours/T0 IWL [10] | Variation T 2 hours/T0 IWL [11] | Variation T 2 hours/T0 Corneo [12] | Variation T 2 hours/T0 Corneo [13] | Variation T 2 hours/T0 IWL [14]
1 | OCC(O)CO [Glycerol] | 1% | 22% | 16% | 40% | 47% | 183% | 55% | 52% | 62% | 188% | 14% | 69% | 38% | –
2 | CCCCCCCCCCCCOP(=O)(O)O [Surfactant, Lauryl phosphate] | 2% | 5% | 2% | 104% | 20% | – | 19% | 30% | 271% | 48% | 13% | 1144% | 48% | 0%
